The record followed here is patent US5726186A, “Pentacyclic compounds, intermediates, processes, compositions, and methods” (Eli Lilly and Company, priority 1996, dated 1998).

Each structure is given as a SMILES string. pIC50: −log10 of the molar value.

For one experiment, the system named is uterus. Put plainly: Wet uterine weight in ovariectomized rats (post-menopausal model). In kind it is in vivo, female Sprague Dawley rats (ovariectomized). The settings on record: Rattus norvegicus, 96 h, oral, daily for 4 days, OVX rats, read-out: Uterine Weight (% increase vs. OVX). The protocol: In the examples illustrating the methods, a post-menopausal model was used in which effects of different treatments upon circulating lipids were determined.
(§1) Seventy-five day old female Sprague Dawley rats (weight range of 200 to 225 g) were obtained from Charles River Laboratories (Portage, Mich.). The animals were either bilaterally ovariectomized (OVX) or exposed to a Sham surgical procedure at Charles River Laboratories, and then shipped after one week. Upon arrival, they were housed in metal hanging cages in groups of 3 or 4 per cage and had ad libitum access to food (calcium content approximately 0.5%) and water for one week. Room temperature was maintained at 22.2°±1.7° C. with a minimum relative humidity of 40%. The photoperiod in the room was 12 hours light and 12 hours dark.
(§2) Dosing Regimen Tissue Collection. After a one week acclimation period (therefore, two weeks post-OVX) daily dosing with test compound was initiated. 17a-ethynyl estradiol or the test compound were given orally, unless otherwise stated, as a suspension in 1% carboxymethylcellulose or dissolved in 20% cyclodextrin. Animals were dosed daily for 4 days. Following the dosing regimen, animals were weighed and anesthetized with a ketamine: Xylazine (2:1, V:V) mixture and a blood sample was collected by cardiac puncture. The animals were then sacrificed by asphyxiation with CO2, the uterus was removed through a midline incision, and a wet uterine weight was determined.
(§3) The data presented in the Tables 1 below reflects the response of 5 to 6 rats per treatment.

In experiment [1] the test system is Uterine Eosinophil Peroxidase (EPO). Put plainly: Uterine Eosinophil Peroxidase (EPO) Assay. In kind it is in vivo, female Sprague Dawley rats (ovariectomized). More on the design: Uterine EPO (V. max): unit not given here. To be noted: oral, daily for 4 days, OVX rats, 450 nm.
From the text: as §1, §2
Uterine Eosinophil Peroxidase (EPO) Assay. Uteri were kept at 4° C. until time of enzymatic analysis. The uteri were then homogenized in 50 volumes of 50 mM Tris buffer (pH-8.0) containing 0.005% Triton X-100. Upon addition of 0.01% hydrogen peroxide and 10 mM O-phenylenediamine (final concentrations) in Tris buffer, increase in absorbance was monitored for one minute at 450 nm. The presence of eosonophils in the uterus is an indication of estrogenic activity of a compound. The maximal velocity of a 15 second interval was determined over the initial, linear portion of the reaction curve.
As is expressed in the below data, estrogenicity also was assessed by evaluating the adverse response of eosinophil infiltration into the uterus.
as §3

Another experiment relates to Serum Cholesterol. Put plainly: Serum cholesterol analysis in ovariectomized rats. In kind it is in vivo, female Sprague Dawley rats (ovariectomized). The settings on record: Rattus norvegicus, 96 h, oral, daily for 4 days, OVX rats, read-out: Serum Cholesterol (% decrease vs. OVX).
From the text: as §1, §2
Cholesterol Analysis. Blood samples were allowed to clot at room temperature for 2 hours, and serum was obtained following centrifugation for 10 minutes at 3000 rpm. Serum cholesterol was determined using a Boehringer Mannheim Diagnostics high performance cholesterol assay. Briefly the cholesterol was oxidized to cholest-4-en-3-one and hydrogen peroxide. The hydrogen peroxide was then reacted with phenol and 4-aminophenazone in the presence of peroxidase to produce a p-quinone imine dye, which was read spectrophotemetrically at 500 nm. Cholesterol concentration was then calculated against a standard curve. The entire assay was automated using a Biomek Automated Workstation.
as §3

Experiment [2] relates to MCF-7 breast adenocarcinoma cells. The experiment can be described thus: MCF-7 Proliferation Assay (tritiated thymidine). In kind it is cell-based. To be noted: Homo sapiens, MCF7; MCF-7 cells, 48 hours, tritiated thymidine pulse 4 hours. The protocol: MCF-7 breast adenocarcinoma cells (ATCC HTB 22) were maintained in MEM (minimal essential medium, phenol red-free, Sigma, St. Louis, Mo.) supplimented with 10% fetal bovine serum […] (V/V), L-glutamine (2 mM), sodium pyruvate (1 mM), HEPES {(N-[2-hydroxyethyl]piperazine-N'-[2-ethanesulfonic acid]10 mM)}, non-essential amino acids and bovine insulin (1 ug/mL) (maintenance medium). Ten days prior to assay, MCF-7 cells were switched to maintenance medium supplemented with 10% dextran coated charcoal stripped fetal bovine serum (DCC-FBS) assay medium) in place of 10% FBS to deplete internal stores of steroids. MCF-7 cells were removed from maintenance flasks using cell dissociation medium (Ca++/Mg++ free HBSS (phenol red-free) supplemented with 10 mM HEPES and 2 mM EDTA). Cells were washed twice with assay medium and adjusted to 80,000 cells/mL. Approximately […] (8,000 cells) were added to flat-bottom microculture wells (Costar 3596) and incubated at 37° C. in a 5% CO2 humidified incubator for 48 hours to allow for cell adherence and equilibration after transfer. Serial dilutions of drugs or DMSO as a diluent control were prepared in assay medium and […] to triplicate microcultures followed by […] assay medium for a final volume of […]. After an additional 48 hours at 37° C. in a 5% CO2 humidified incubator, microcultures were pulsed with tritiated thymidine (1 uCi/well) for 4 hours. Cultures were terminated by freezing at -70° C. for 24 hours followed by thawing and harvesting of microcultures using a Skatron Semiautomatic Cell Harvester. Samples were counted by liquid scintillation using a Wallac BetaPlace b counter. Results in Table 3 below show the IC50 for certain compounds of the present invention.

As to `Oc1ccc2c(c1)CN(c1ccc(OCCN3CCCCC3)cc1)c1c-2ccc2cc(O)ccc12` [Example 14, 2,8-Dihydroxy-5-[4-[2-(1-piperidinyl)ethoxy]phenyl]-6H-benzo[c]phenanthridine], the change in vivo at 0.01 mg/kg with uterus (0.01 mg/kg) is -0.6%. Further, in the experiment on uterus, the change in vivo at 0.1 mg/kg was 60%. Also, the change in vivo at 1 mg/kg in the experiment with uterus turned out to be 49.1%. The “Uterine EPO (V. max)” value is on record as 2.7 in experiment [1] (0.01 mg/kg), 5.4 in experiment [1] (0.1 mg/kg) and 36.0 in experiment [1] (1.0 mg/kg). In addition, the inhibition in vivo at 0.01 mg/kg in the experiment with Serum Cholesterol (0.01 mg/kg) stood at 24.8%. In the experiment with Serum Cholesterol, the inhibition in vivo at 0.1 mg/kg is 59.5%. For the same compound, the inhibition in vivo at 1 mg/kg in the experiment on Serum Cholesterol stood at 60.7%. In addition, the negative-log IC50 (pIC50) in experiment [2] was 9.00.
Take `Oc1ccc2c(c1)OC(c1ccc(OCCN3CCCCC3)cc1)c1c-2oc2cc(O)ccc12` (stereo not shown) [Example 11, 3,9-Dihydroxy-6-[4-[2-(1-piperidinyl)ethoxy]phenyl]-6-H-benzofuro[3,2-c][1]benzopyran]: in the experiment with uterus, the change in vivo at 0.1 mg/kg is -8.8%, the change in vivo at 1 mg/kg was 3% and the change in vivo at 10 mg/kg is -12.6%. Also, the “Uterine EPO (V. max)” value in experiment [1] (0.1 mg/kg) turned out to be 2.7. In addition, the “Uterine EPO (V. max)” value in experiment [1] (1.0 mg/kg) came to 4.2. In addition, in experiment [1] (10.0 mg/kg), the “Uterine EPO (V. max)” value was 4.2. In the experiment with Serum Cholesterol, the inhibition in vivo at 0.1 mg/kg came out at 17.4%, the inhibition in vivo at 1 mg/kg amounted to 30.9% and the inhibition in vivo at 10 mg/kg came to 36.3%. The same compound showed a pIC50 in experiment [2] of 9.15.
In the case of `CC(C)(C)C(=O)Oc1ccc2c(c1)OC(c1ccc(OCCN3CCCCC3)cc1)c1c-2sc2cc(OC(=O)C(C)(C)C)ccc12` (stereo not shown) [Example 4, 3,9-Bis(pivaloyloxy)-6-[4-[2-(1-piperidinyl)ethoxy]phenyl]-6-H-[1]benzothieno[3,2-c][1]benzopyran], in the experiment on uterus, the change in vivo at 0.1 mg/kg was 10% and the change in vivo at 1 mg/kg came to 15.3%. In experiment [1] (0.1 mg/kg), the “Uterine EPO (V. max)” value was found to be 3.3. The “Uterine EPO (V. max)” value in experiment [1] (1.0 mg/kg) is recorded as 3.3. For the same compound, in the experiment with Serum Cholesterol, the inhibition in vivo at 0.1 mg/kg turned out to be 62.6% and the inhibition in vivo at 1 mg/kg was 48.2%. Also, the negative-log IC50 (pIC50) in experiment [2] was 8.30.
For `COc1ccc2c(c1)OC(c1ccc(OCCN3CCCCC3)cc1)c1c-2sc2cc(OC)ccc12` (stereo not shown) [Example 2, 3,9-Dimethoxy-6-[4-[2-(1-piperidinyl)ethoxy]phenyl]-6-H-[1]benzothieno[3,2-c][1]benzopyran], the pIC50 in experiment [2] was 7.00.
Turning to `O=S(=O)(Oc1ccc2c(c1)OC(c1ccc(OCCN3CCCCC3)cc1)c1c-2sc2cc(OS(=O)(=O)C(F)(F)F)ccc12)C(F)(F)F` (stereo not shown) [Example 6, 3,9-Bis(trifluoromethanesulfonyloxy)-6-[4-[2-(1-piperidinyl)ethoxy]phenyl]-6-H-[1]benzothieno[3,2-c][1]benzopyran], in the experiment on uterus, the change in vivo at 0.1 mg/kg is 23%, the change in vivo at 1 mg/kg is 6.4% and the change in vivo at 10 mg/kg turned out to be 50%. For the same compound, the “Uterine EPO (V. max)” value in experiment [1] (0.1 mg/kg) was 4.2. The “Uterine EPO (V. max)” value in experiment [1] (1.0 mg/kg) was determined as 1.8. Also, the “Uterine EPO (V. max)” value in experiment [1] (10.0 mg/kg) is listed as 3.6. In the experiment with Serum Cholesterol, the inhibition in vivo at 0.1 mg/kg is -2.5%, the inhibition in vivo at 1 mg/kg came to 9.9% and the inhibition in vivo at 10 mg/kg was -11.4%. Moreover, the pIC50 in experiment [2] is 6.30.
As to `O=C(Oc1ccc2c(c1)OC(c1ccc(OCCN3CCCCC3)cc1)c1c-2sc2cc(OC(=O)c3ccccc3)ccc12)c1ccccc1` (stereo not shown) [Example 3, 3,9-Bis(benzoyloxy)-6-[4-[2-(1-piperidinyl)ethoxy]phenyl]-6-H-[1]benzothieno[3,2-c][1]benzopyran], in the experiment with uterus, the change in vivo at 0.1 mg/kg worked out at 32.5% and the change in vivo at 1 mg/kg was determined as 7.4%. Further, the “Uterine EPO (V. max)” value in experiment [1] (0.1 mg/kg) is on record as 4.2. Besides, the “Uterine EPO (V. max)” value in experiment [1] (1.0 mg/kg) came to 3.0. Moreover, in the experiment with Serum Cholesterol, the inhibition in vivo at 0.1 mg/kg is 51.5% and the inhibition in vivo at 1 mg/kg turned out to be 50.8%. Besides, in experiment [2], the pIC50 was 8.52.
On to `CCCCS(=O)(=O)Oc1ccc2c(c1)OC(c1ccc(OCCN3CCCCC3)cc1)c1c-2sc2cc(OS(=O)(=O)CCCC)ccc12` (stereo not shown) [Example 5, 3,9-Bis(1-butylsulfonyloxy)-6-[4-[2-(1-piperidinyl)ethoxy]phenyl]-6-H-[1]benzothieno[3,2-c][1]benzopyran], for which, in the experiment on uterus, the change in vivo at 0.1 mg/kg was -5.1% and the change in vivo at 1 mg/kg worked out at 18.6%. In addition, the “Uterine EPO (V. max)” value in experiment [1] (0.1 mg/kg) turned out to be 4.5. In experiment [1] (1.0 mg/kg), the “Uterine EPO (V. max)” value was determined as 4.8. In the experiment on Serum Cholesterol, the inhibition in vivo at 0.1 mg/kg is -9% and the inhibition in vivo at 1 mg/kg was determined as 61.3%. The compound also had a negative-log IC50 (pIC50) in experiment [2] of 6.00.
